Assay results from PubChem BioAssay AID248 (DTP/NCI, 2004).
Toxic doses and inconclusive results are not listed. No stated cut-off is given here; in the data, active means T/C of 150% or more; inactive means T/C below 125%.

Test system: L1210 leukemia ip in BDF1 mice, survival T/C
Test: NCI In Vivo Anticancer Drug Screen. Data for tumor model L1210 Leukemia (intraperitoneal) in B6D2F1 (BDF1) mice
Settings: endpoint: mean survival time, higher = longer survival
Outline: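 Transplanted-tumor mice were given test agent; controls received vehicle only. Survival readings from the two groups were divided (treated over control).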

Measured: T/C

CCCCCCCCCCCC[n+]1ccc(C)cc1C
inactive: dose: 0.01 mg/kg/injection, schedule: Q01DX015 (ip), vehicle: saline 92 % of control | dose: 0.02 mg/kg/injection, schedule: Q01DX015 (ip), vehicle: saline 98 % of control | dose: 0.04 mg/kg/injection, schedule: Q01DX015 (ip), vehicle: saline 97 % of control | dose: 0.08 mg/kg/injection, schedule: Q01DX015 (ip), vehicle: saline 98 % of control | dose: 0.1 mg/kg/injection, schedule: Q01DX009 (ip), vehicle: saline 97 % of control | dose: 0.1 mg/kg/injection, schedule: Q04DX003 (ip), vehicle: saline 102 % of control | dose: 0.2 mg/kg/injection, schedule: Q01DX009 (ip), vehicle: saline 92 % of control | dose: 0.2 mg/kg/injection, schedule: Q04DX003 (ip), vehicle: saline 97 % of control | dose: 0.4 mg/kg/injection, schedule: Q01DX009 (ip), vehicle: saline 101 % of control | dose: 0.4 mg/kg/injection, schedule: Q04DX003 (ip), vehicle: saline 94 % of control | dose: 0.59 mg/kg/injection, schedule: Q01DX009 (ip), vehicle: saline 91 % of control

Cc1cccc(CN2C(=O)c3ccccc3C2=O)c1
inactive: dose: 100.0 mg/kg/injection, schedule: Q01DX001 (ip), vehicle: Klucel (hydroxypropylcellulose) (HPC) 100 % of control | dose: 200.0 mg/kg/injection, schedule: Q01DX001 (ip), vehicle: Klucel (hydroxypropylcellulose) (HPC) 103 % of control | dose: 400.0 mg/kg/injection, schedule: Q01DX001 (ip), vehicle: Klucel (hydroxypropylcellulose) (HPC) 102 % of control

CCCCCCCCCCCCCCCCN(C)S(=O)(=O)c1ccc(N2CCOCC2)c(N)c1
inactive: dose: 100.0 mg/kg/injection, schedule: Q04DX003 (ip), vehicle: gum acacia 88 % of control | dose: 200.0 mg/kg/injection, schedule: Q04DX003 (ip), vehicle: gum acacia 93 % of control | dose: 400.0 mg/kg/injection, schedule: Q04DX003 (ip), vehicle: gum acacia 86 % of control

COc1cccc(CN(CCC(=O)O)Cc2cccc(OC)c2)c1
inactive: dose: 100.0 mg/kg/injection, schedule: Q01DX009 (ip), vehicle: other 100 % of control | dose: 100.0 mg/kg/injection, schedule: Q04DX003 (ip), vehicle: other 88 % of control | dose: 200.0 mg/kg/injection, schedule: Q01DX009 (ip), vehicle: other 102 % of control | dose: 200.0 mg/kg/injection, schedule: Q04DX003 (ip), vehicle: other 88 % of control | dose: 400.0 mg/kg/injection, schedule: Q01DX009 (ip), vehicle: other 102 % of control | dose: 400.0 mg/kg/injection, schedule: Q04DX003 (ip), vehicle: other 93 % of control

NC(N)=NC(N)=Nc1ccc(S(=O)(=O)c2ccc(N=C(N)N=C(N)N)cc2)cc1
inactive: dose: 100.0 mg/kg/injection, schedule: Q01DX009 (ip), vehicle: saline with Tween-80 95 % of control | dose: 200.0 mg/kg/injection, schedule: Q01DX009 (ip), vehicle: saline with Tween-80 95 % of control

O=[N+]([O-])c1cc2c(c([N+](=O)[O-])c1)Nc1cc(Cl)ccc1O2
inactive: dose: 100.0 mg/kg/injection, schedule: Q01DX009 (ip), vehicle: Klucel (hydroxypropylcellulose) (HPC) 95 % of control | dose: 200.0 mg/kg/injection, schedule: Q01DX009 (ip), vehicle: Klucel (hydroxypropylcellulose) (HPC) 96 % of control | dose: 400.0 mg/kg/injection, schedule: Q01DX009 (ip), vehicle: Klucel (hydroxypropylcellulose) (HPC) 96 % of control

C/C=C/C=C/COC(=O)C=C(C)C
inactive: dose: 100.0 mg/kg/injection, schedule: Q04DX002 (ip), vehicle: saline 107 % of control | dose: 200.0 mg/kg/injection, schedule: Q04DX002 (ip), vehicle: saline 101 % of control | dose: 400.0 mg/kg/injection, schedule: Q04DX002 (ip), vehicle: saline 107 % of control

Nc1nc(N)c(C=Nc2ccc(Br)cc2)c(Nc2ccc(Br)cc2)n1
inactive: dose: 50.0 mg/kg/injection, schedule: Q01DX001 (ip), vehicle: alcohol 100 % of control
